Measurements reported in publication PMC11189555, “Aryl amino acetamides prevent Plasmodium falciparum ring development via targeting the lipid-transfer protein PfSTART1” (Nature Communications, 2024).
Like-named read-outs stand apart in the source and are kept apart here.

Experiments:
[1] = system: PopD-D7 M-833 resistant clone (PfSTART1 N309K); assay: Growth inhibition assay (72 h, LDH activity); format: cell-based, Plasmodium falciparum; conditions: for inhibition at 0.0390625 µM / inhibition at 0.078125 µM / inhibition at 0.15625 µM / inhibition at 0.3125 µM / inhibition at 0.625 µM / inhibition at 1.25 µM / inhibition at 2.5 µM / inhibition at 5 µM / inhibition at 10 µM / EC50: Plasmodium falciparum; for (av-uRBC) / (DMSO-uRBC) x100: PopD-D7
Method: The drug was then removed, and parasites were allowed to recover. Another cycle of drug treatment (3 μM M-833) was then resumed. The resistant lines were cloned out by limiting dilution (diluting the culture into a 96-well plate to achieve an average of ~0.3 parasites per well), prior to growth inhibition assays and genomic DNA (gDNA) extraction (DNeasy Blood and Tissue kit (Qiagen)[18].
Parasite growth assays with inhibitory compounds were performed as per[11] and are fully described in the Supplementary Information. […]
Growth inhibition assays. Synchronised ring-stage parasites (0.3-0.6% parasitemia, 2% haematocrit) were grown for 72 h in a serial-dilution of the compound under […]
and compound 4. Note that M-833 was first purchased from MolPort (MolPort -002-267-916) then made in-house at WEHI: the differences observed in EC50s across experiments are attributed to the different batches of M -833. For some experiments, 0, 0.25 or 2.5 mM of glucosamine (GlcN) was also added. Experiments were set up in technical duplicates or triplicates. Following a freeze -thaw cycle, lactate dehydrogenase (LDH) activity was assessed as an indicator of parasite growt h 5. 30 μL of parasite culture was incubated for 30 min in the dark with 75 μL Malstat mixture (0.1 M Tris pH 9.0, 20 g/L lactic acid, pH 7.5, 0.2% Triton-X100, 0.5 g/L acetylpyridine adenine dinucleotide (APAD, Sigma), 200 μg/mL nitroblue tetrazolium (NBT; Sigma), 1 μg/mL phenozine ethosulfate (PES; Sigma)). Absorbance was then measured at 650 nm, transformed using the formula below, plotted against the logarithm of the concentrations, and a non-linear regression (log(inhibitor) vs. response, variable slope) was calculated using GraphPad Prism to assess the half-inhibitory […]
Growth inhibition % = (1 − average(sample)− average(uRBC)) ∗ 100 […]
The DMSO samples were also used to assess growth of parasite in the presence of 0.25 and 2.5 mM GlcN (normalised by DMSO in 0 mM GlcN). […]

[2] = target: T1, recombinant PfSTART1(WT) (I149-V394) (Plasmodium falciparum, UniProt Q8I298); assay: Isothermal titration calorimetry; format: binding; conditions: for Differential Power DP_Y / ΔH NDH_Y: PfSTART(WT), ITC replicate data
T1 construct: START domain alone (I149-V394 from PF3D7_0104200); 8xHis tag (N); TEV protease cleavage site (N); made in house; host or cells: Sf21 insect cells (baculovirus)
Source text: Codon optimised (Spodoptera frugiperda, Sf) START domain alone (I149-V394 from PF3D7_0104200) was synthesised by Integrated DNA Technologies and cloned into a modified baculovirus transfer vector (pAcGP67-A) with a N-terminal GP67-signal sequence, 8xHis tag, and TEV protease cleavage site. Recombinant baculovirus was generated via the flashBACTM Baculovirus Expression System using Sf21 cells (Life Technologies), amplified to reach a third passage viral stock, and 1.5% used to infect Sf21 for protein expression. After incubation for three days at 28 °C, media containing secreted protein was harvested by centrifugation and supplemented with 50 mM Tris pH 7.5, 20 mM MgCl2, 100 mM NaCl, and 10-20 mM imidazole. The supplemented protein sample was purified by nickel affinity chromatography (HisTrap Excel 5 mL, Cytiva), and eluted with 20 mM Tris pH 7.5, 500 mM NaCl, 300-500 mM imidazole. Eluted fractions were further purified using size-exclusion chromatography (Superdex S75 16/600 or Superdex 10/300, Cytiva) with the column pre-equilibrated with 20 mM HEPES pH 7.5, 150 mM NaCl, and peak-containing fractions concentrated and stored at -80 °C until required. If required, prior to ITC, a second size-exclusion chromatography step was performed to remove soluble aggregates.
ITC experiments were performed on a MicroCal PEAQ-ITC calorimeter at 25 °C, with a stirring speed of 750 rpm and a reference power of 5 μcal/sec. 500 μM M-833 series inhibitor solutions were diluted to 10 μM in 50 mM NaPO4^-3 (pH 7.4), 150 mM NaCl with a final DMSO concentration of 2% (v/v) (cell sample). PfSTART1 protein was dialysed extensively against 50 mM NaPO4^-3 (pH 7.4), 150 mM NaCl, before diluting to 90 μM in the same buffer with 2% (v/v) DMSO (syringe sample). The first injection was 0.4 μL over a 0.8 s duration, and the remaining 19 injections were 2 μL of 4 s duration, with 150 s injection spacing. Data were collected and analysed using the PEAQ-ITC software (MicroCal) and fit by a single site binding model. A fitted offset (constant control heat) was also applied to the integrated heat.

in vitro = conditions: human
[3] = M-833 0.0390625 uM, PopD-D7 replicate 1
[4] = M-833 0.0390625 uM, PopD-D7 replicate 3
[5] = M-833 0.078125 uM, PopD-D7 replicate 1
[6] = M-833 0.078125 uM, PopD-D7 replicate 3
[7] = M-833 0.15625 uM, PopD-D7 replicate 1
[8] = M-833 0.15625 uM, PopD-D7 replicate 3
[9] = M-833 0.3125 uM, PopD-D7 replicate 1
[10] = M-833 0.3125 uM, PopD-D7 replicate 3
[11] = M-833 0.625 uM, PopD-D7 replicate 1
[12] = M-833 0.625 uM, PopD-D7 replicate 3
[13] = M-833 1.25 uM, PopD-D7 replicate 1
[14] = M-833 1.25 uM, PopD-D7 replicate 3
[15] = M-833 2.5 uM, PopD-D7 replicate 1
[16] = M-833 2.5 uM, PopD-D7 replicate 3
[17] = M-833 5 uM, PopD-D7 replicate 1
[18] = M-833 5 uM, PopD-D7 replicate 3
[19] = M-833 10 uM, PopD-D7 replicate 1
[20] = M-833 10 uM, PopD-D7 replicate 3

T1 sequence (Q8I298 entry or part of it): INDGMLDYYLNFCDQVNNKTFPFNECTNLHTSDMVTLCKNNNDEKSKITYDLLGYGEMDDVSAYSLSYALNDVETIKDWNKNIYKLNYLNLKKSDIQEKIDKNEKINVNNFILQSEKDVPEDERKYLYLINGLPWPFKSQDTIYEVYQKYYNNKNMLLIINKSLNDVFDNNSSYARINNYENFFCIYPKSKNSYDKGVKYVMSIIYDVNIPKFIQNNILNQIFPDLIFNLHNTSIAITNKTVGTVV

Cc1cc(Cl)c(S(=O)(=O)N2CCCC2)cc1OCC(=O)NC1CCCCC1 [M-833]
Normalised to DMSO [1, 3]: 102.734
Normalised to DMSO [1, 4]: 100.987
Normalised to DMSO [1, 5]: 102.828
Normalised to DMSO [1, 6]: 101.481
Normalised to DMSO [1, 7]: 103.677
Normalised to DMSO [1, 8]: 99.9013
Normalised to DMSO [1, 9]: 100.66
Normalised to DMSO [1, 10]: 100.592
Normalised to DMSO [1, 11]: 98.7744
Normalised to DMSO [1, 12]: 98.815
Normalised to DMSO [1, 13]: 99.0572
Normalised to DMSO [1, 14]: 95.26
Normalised to DMSO [1, 15]: 95.8517
Normalised to DMSO [1, 16]: 89.6313
Normalised to DMSO [1, 17]: 85.4808
Normalised to DMSO [1, 18]: 79.5589
Normalised to DMSO [1, 19]: 58.4224
Normalised to DMSO [1, 20]: 50.0329
inhibition at 0.0390625 µM [1, 3]: -2.73%
inhibition at 0.0390625 µM [1, 4]: -0.987%
inhibition at 0.078125 µM [1, 5]: -2.83%
inhibition at 0.078125 µM [1, 6]: -1.48%
inhibition at 0.15625 µM [1, 7]: -3.68%
inhibition at 0.15625 µM [1, 8]: 0.0987%
inhibition at 0.3125 µM [1, 9]: -0.66%
inhibition at 0.3125 µM [1, 10]: -0.592%
inhibition at 0.625 µM [1, 11]: 1.23%
inhibition at 0.625 µM [1, 12]: 1.18%
inhibition at 1.25 µM [1, 13]: 0.943%
inhibition at 1.25 µM [1, 14]: 4.74%
inhibition at 2.5 µM [1, 15]: 4.15%
inhibition at 2.5 µM [1, 16]: 10.4%
inhibition at 5 µM [1, 17]: 14.5%
inhibition at 5 µM [1, 18]: 20.4%
inhibition at 10 µM [1, 19]: 41.6%
inhibition at 10 µM [1, 20]: 50%
EC50 ([1]; read-out: EC50 (95% confidence interval)): 9.95 µM
EC50 ([1]; Supplementary Table 1, PopD-D7 (N309K), 72 h, read-out: EC50): 4.88 µM
(av-uRBC) / (DMSO-uRBC) x100 ([1]; conc. 3.04832 nM, Biological replicate 1 (2021-10-25)): 106.031
(av-uRBC) / (DMSO-uRBC) x100 ([1]; conc. 3.04832 nM, Biological replicate 2 (2021-11-03)): 107.379
(av-uRBC) / (DMSO-uRBC) x100 ([1]; conc. 3.04832 nM, Biological replicate 3 (2021-11-11)): 132.053
(av-uRBC) / (DMSO-uRBC) x100 ([1]; conc. 9.14495 nM, Biological replicate 1 (2021-10-25)): 108.232
(av-uRBC) / (DMSO-uRBC) x100 ([1]; conc. 9.14495 nM, Biological replicate 2 (2021-11-03)): 108.229
(av-uRBC) / (DMSO-uRBC) x100 ([1]; conc. 9.14495 nM, Biological replicate 3 (2021-11-11)): 134.103
(av-uRBC) / (DMSO-uRBC) x100 ([1]; conc. 27.4348 nM, Biological replicate 1 (2021-10-25)): 109.088
(av-uRBC) / (DMSO-uRBC) x100 ([1]; conc. 27.4348 nM, Biological replicate 2 (2021-11-03)): 108.743
(av-uRBC) / (DMSO-uRBC) x100 ([1]; conc. 27.4348 nM, Biological replicate 3 (2021-11-11)): 131.145
(av-uRBC) / (DMSO-uRBC) x100 ([1]; conc. 82.3045 nM, Biological replicate 1 (2021-10-25)): 105.921
(av-uRBC) / (DMSO-uRBC) x100 ([1]; conc. 82.3045 nM, Biological replicate 2 (2021-11-03)): 106.368
(av-uRBC) / (DMSO-uRBC) x100 ([1]; conc. 82.3045 nM, Biological replicate 3 (2021-11-11)): 120.919
(av-uRBC) / (DMSO-uRBC) x100 ([1]; conc. 246.914 nM, Biological replicate 1 (2021-10-25)): 104.521
(av-uRBC) / (DMSO-uRBC) x100 ([1]; conc. 246.914 nM, Biological replicate 2 (2021-11-03)): 107.825
(av-uRBC) / (DMSO-uRBC) x100 ([1]; conc. 246.914 nM, Biological replicate 3 (2021-11-11)): 115.806
(av-uRBC) / (DMSO-uRBC) x100 ([1]; conc. 740.741 nM, Biological replicate 1 (2021-10-25)): 96.6483
(av-uRBC) / (DMSO-uRBC) x100 ([1]; conc. 740.741 nM, Biological replicate 2 (2021-11-03)): 106.073
(av-uRBC) / (DMSO-uRBC) x100 ([1]; conc. 740.741 nM, Biological replicate 3 (2021-11-11)): 111.809
(av-uRBC) / (DMSO-uRBC) x100 ([1]; conc. 2222.22 nM, Biological replicate 1 (2021-10-25)): 83.9595
(av-uRBC) / (DMSO-uRBC) x100 ([1]; conc. 2222.22 nM, Biological replicate 2 (2021-11-03)): 95.9821
(av-uRBC) / (DMSO-uRBC) x100 ([1]; conc. 2222.22 nM, Biological replicate 3 (2021-11-11)): 68.0249
(av-uRBC) / (DMSO-uRBC) x100 ([1]; conc. 6666.67 nM, Biological replicate 1 (2021-10-25)): 42.8085
(av-uRBC) / (DMSO-uRBC) x100 ([1]; conc. 6666.67 nM, Biological replicate 2 (2021-11-03)): 58.8022
(av-uRBC) / (DMSO-uRBC) x100 ([1]; conc. 6666.67 nM, Biological replicate 3 (2021-11-11)): 17.0257
(av-uRBC) / (DMSO-uRBC) x100 ([1]; conc. 20000 nM, Biological replicate 1 (2021-10-25)): 9.309
(av-uRBC) / (DMSO-uRBC) x100 ([1]; conc. 20000 nM, Biological replicate 2 (2021-11-03)): 11.2449
(av-uRBC) / (DMSO-uRBC) x100 ([1]; conc. 20000 nM, Biological replicate 3 (2021-11-11)): 4.179
Normalised to DMSO ([1]; PopD-D7 replicate 1, M-833 0.0390625 uM): 0.8625
Normalised to DMSO ([1]; PopD-D7 replicate 1, M-833 0.078125 uM): -4.169
Normalised to DMSO ([1]; PopD-D7 replicate 1, M-833 0.15625 uM): -1.581
Normalised to DMSO ([1]; PopD-D7 replicate 1, M-833 0.3125 uM): -1.15
Normalised to DMSO ([1]; PopD-D7 replicate 1, M-833 0.625 uM): -0.1437
Normalised to DMSO ([1]; PopD-D7 replicate 1, M-833 1.25 uM): -3.594
Normalised to DMSO ([1]; PopD-D7 replicate 1, M-833 2.5 uM): 7.619
Normalised to DMSO ([1]; PopD-D7 replicate 1, M-833 5 uM): 28.7494
Fold change compared to 3D7 ([1]; Supplementary Table 1, EC50 on PopD-D7 vs 3D7): 31 fold
Kd ([2]; ITC, 25 °C, 90 µM PfSTART1 titrated into 10 µM compound, n = 2, ± SD): 0.042 ± 0.012 µM
ΔH ([2]; ITC, 25 °C, n = 2, ± SD): -7.6 ± 0.2 kcal/mol
−TΔS ([2]; ITC, 25 °C, n = 2, ± SD): -2.5 ± 0.4 kcal/mol
Differential Power DP_Y ([2]; DP_X 0.083333): -0.001604
Differential Power DP_Y ([2]; DP_X 0.1): -0.001099
ΔH NDH_Y ([2]; NDH_X 0.104703): -8.4
ΔH NDH_Y ([2]; NDH_X 0.192876): -6.335
CC50 (in vitro): > 40 µM
